79 compounds from the METLIN SMRT retention time set (Domingo-Almenara et al. 2019) can be followed below.

The series can be described thus: gradient 5% acetonitrile 3 min, to 50% in 2 min, to 85% in 15 min, held 3 min, 100 µL/min. The settings on record: column: Zorbax Extend-C18 2.1 x 50 mm; eluents: water / acetonitrile, 0.1% formic acid. In a few lines: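 A Zorbax Extend-C18 column (2.1 × 50 mm, 1.8 μm) run at 100 μL/min with water and acetonitrile, both containing 0.1% formic acid, separated mixtures of ~100 pure standards. The HPLC was coupled to a quadrupole time-of-flight mass spectrometer operated in positive and negative ionization mode, with dead and dwell volumes of 40 μL and 900 μL. Each retention time was taken from a computationally picked adduct peak that was then manually inspected.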
The compound `COc1ccc(S(=O)(=O)N2C[C@@H](F)C[C@H]2C(=O)N2CCOCC2)cc1` showed an RP-LC retention time of 669 s.

`COc1ccccc1NC(=O)C1CCCN(S(=O)(=O)c2c[nH]c(C(=O)N3CCCCCC3)c2)C1` (centres undefined) had an RP-LC retention time of 898 s. Then `COc1ccc(Cn2c(=O)c3sccc3n(Cc3nc(-c4ccc(SC)cc4)no3)c2=O)cc1`, with 1160 s. Consider `Cc1cc(=O)n(CC(=O)Nc2ccccc2)c(N2CCCCC2)n1`, for which the RP-LC retention time is 670 s. Under `CC1=NS(=O)(=O)N(Cc2ccccc2)C=C1C(=O)OCc1ccc(Cl)cc1` stands 1160 s; under `CCc1noc(C2(NC(=O)C(CC)c3ccccc3)CCCCC2)n1` (centres undefined), 1090 s. `CCn1cnc(S(=O)(=O)N2CCC(C(=O)Nc3ccc(C)cn3)CC2)c1` registered an RP-LC retention time of 592 s.

With `Clc1ccc(-c2csc(Cc3nc(-c4ccccc4)no3)n2)cc1`, the RP-LC retention time was found to be 1310 s.

`O=C(NC1CCN(c2cc(N3CCOCC3)cnn2)C1)C1CCCC1` (centres undefined) displayed an RP-LC retention time of 548 s. On to `COc1cc(C2CC(=O)c3c([nH]c(C(=O)OC4CCCCC4)c3C)C2)cc(OC)c1OC` (centres undefined), for which the RP-LC retention time came out at 1090 s. Under `COc1cccc(-c2noc(C3CCCN3C(=O)Nc3ccc4c(c3)OCO4)n2)c1` (centres undefined) stands 896 s; under `CC1CCN(c2cc(-n3cnc(C(=O)N4CCN(C5CCCCC5)CC4)c3)ncn2)CC1`, 597 s; under `Cc1cc(-c2nnc(-c3ccco3)o2)c(C)n1CC(=O)NCc1ccc(F)cc1F`, 857 s.

Consider `CN(C)CCNC(=O)c1cc2n(n1)CC(C)(C(=O)NCc1ccc(F)cc1)N(C)C2=O` (centres undefined), for which the RP-LC retention time turned out to be 576 s.

As to `Cc1cc(C)cc(NS(=O)(=O)c2c[nH]c3ncccc23)c1`, the RP-LC retention time is 758 s. Under `CCc1nnc(-c2ccc3ccn(CC(=O)Nc4cc(OC)ccc4OC)c3c2)o1` stands 770 s; under `Cc1ccc(CN2CCN(C3CCN(C(=O)c4ccc(Br)o4)CC3)C(=O)C2=O)cc1`, 718 s; under `O=C(Nc1ccc2c(N3CCCCC3)ncnc2c1)c1ccc(Br)o1`, 685 s. Under `Cc1ccc2[nH]cc(CCN3CC(C(=O)Nc4ccc(C)c(C)c4)CC3=O)c2c1` (centres undefined) stands 910 s; under `Cc1oc2ncnc(N3CCCC(C(=O)NCc4ccccc4Cl)C3)c2c1C` (centres undefined), 892 s.

Consider `CC(C)OCCCNC(=O)Cn1cccc1-c1nc(-c2ccc(Cl)cc2)cs1`, for which the RP-LC retention time came to 1100 s. Under `CC(Oc1cc(O)c2c(=O)cc(-c3ccccc3)oc2c1)C(=O)c1ccccc1` (centres undefined) stands 1210 s.

`Cc1cccc(NC(=O)Cn2nc3nc(N4CCCC(C)C4)ccn3c2=O)c1` (centres undefined) displayed an RP-LC retention time of 791 s. Turning to `CS(=O)(=O)N1CCCC1C(=O)Nc1ccc(F)cc1` (centres undefined), the RP-LC retention time amounted to 693 s.

In turn, `Cc1nc(-c2ccc3c(c2)CCN3C(=O)c2cccs2)cs1` displayed an RP-LC retention time of 953 s. The compound `O=C1NC2(CCN(C(=O)c3ccccc3)CC2)N=C1c1ccc(Cl)cc1` returned an RP-LC retention time of 842 s.

For `Cc1ccc(-c2cnc(N3CCCC(C(=O)NCc4ccc5c(c4)OCO5)C3)nc2)cc1` (centres undefined), the RP-LC retention time was found to be 1060 s.

`O=C(Nc1nc2c(s1)CN(S(=O)(=O)c1ccccc1)CC2)c1ccoc1` yielded an RP-LC retention time of 823 s. Then `O=C(CCn1cnc2c(cnn2-c2ccccc2)c1=O)Nc1ccc2c(c1)OCCO2`, with 754 s; and `CCOC(=O)CSc1nc2ccccc2n1C`, with 670 s. Then `CCCCNC(=O)C1CCCN(C(=O)Nc2ccc(NC(=O)Nc3ccccc3)cc2)C1` (centres undefined), with 812 s. Then `C=CCNC(=O)c1ccc2c(c1)c(C)c(C)n2C`, with 828 s; and `CCc1cccc(NC(=O)Cn2cnc3c(sc4nc(-c5ccccc5)ccc43)c2=O)c1`, with 1100 s; and `CCCCc1ccc(NC(=O)CSc2cc(N3CCN(c4ccc(OC)cc4)CC3)ncn2)cc1`, with 1310 s.

Compound `CN(Cc1ccsc1)C(=O)Nc1ccc(F)cc1` had an RP-LC retention time of 839 s. Under `Cc1cc(-c2c(C)sc(C)c2S(=O)(=O)NCCc2ccc(Cl)cc2)n[nH]1` stands 1130 s; under `O=c1c2scc(-c3ccc(F)cc3)c2ncn1Cc1ccc(Br)cc1`, 1180 s. Under `Cc1cc(C)cc(C(=O)N2CCCC(C(=O)NCCC3=CCCCC3)C2)c1` (centres undefined) stands 980 s; under `CCCN(C)c1nccn2c(=O)n(CC(=O)Nc3cccc(C)c3C)nc12`, 684 s; under `O=C(NCCc1c[nH]c2ccc(Cl)cc12)c1cc2n(n1)CCCN(Cc1ccccc1)C2=O`, 904 s. Then `CCN(C(=O)C1CCCN1S(=O)(=O)c1cc2c(cc1C)NC(=O)C(C)O2)c1cccc(C)c1` (centres undefined), with 868 s; and `CCn1cnc(S(=O)(=O)N2CCC(C(=O)NCc3cccs3)CC2)c1`, with 658 s. Compound `CNc1cc(NS(=O)(=O)c2ccc(N)cc2)nc(NC)n1` yielded an RP-LC retention time of 370 s. Then `CCOC(=O)c1noc2ncnc(NCCc3ccc(Cl)cc3)c12`, with 1110 s. In turn, `CS(=O)(=O)NC1(CC2CC2)CCN(Cc2cn[nH]c2-c2ccc(F)cc2)CC1` came in with an RP-LC retention time of 623 s. The compound `COc1ccc(C2(C(=O)N3CCC4(CC3)N(C)C(=O)CS4=O)CC2)cc1` (centres undefined) registered an RP-LC retention time of 636 s. For `CCOC(=O)c1cnc2nc(C)ccc2c1Nc1ccc(OC)cc1OC`, the RP-LC retention time came out at 702 s. Then `Cc1nc2cc(-c3noc(-c4ccc(F)c(Cl)c4)n3)ccc2o1`, with 1270 s; and `CC1CCN(c2cc(-n3cnc(C(=O)N4CCN(c5ccccc5)CC4)c3)ncn2)CC1`, with 1040 s.

Take `Cc1cc(C)cc(NC(=O)CN2C(=O)COc3ccc(C(=O)N4CCCC4)cc32)c1`: the RP-LC retention time is 773 s. Then `CN(C)CCn1nnc2cc(-c3noc(Cc4cccc(F)c4)n3)ccc21`, with 668 s; and `Cc1ccc(C(=O)N2[C@H]3CC[C@@H]2c2cnc(-c4ccccc4)nc2C3)cn1`, with 689 s; and `Cc1nnc(N2CCCC(C(=O)NCCCOC(C)C)C2)c2nn(-c3ccc(Cl)cc3)c(C)c12` (centres undefined), with 714 s. Then `COc1cccc(CN2CCC(Oc3ccccc3-c3nc(-c4ccncc4)no3)C2)n1` (centres undefined), with 686 s; and `O=C(c1nnn2c1COC(c1ccc(Cl)cc1)C2)N1CCSCC1` (centres undefined), with 949 s; and `CCOC(=O)Cc1ccc(NC(=O)N2CCN(c3ccc(=O)n(-c4ccc(F)cc4)n3)CC2)cc1`, with 789 s.

`CCc1onc(C)c1C1CCCN1C(=O)Nc1ccc(C(=O)OC)cc1` (centres undefined): the RP-LC retention time is 806 s. Under `CCOCCCNC(=O)C1CCCN(c2nnc(C)c3c(C)n(-c4ccc(OC)cc4)nc23)C1` (centres undefined) stands 665 s. `CCOc1ccc(Cc2nc(-c3ccc4c(c3)nc(C)c(=O)n4C)no2)cc1OCC` had an RP-LC retention time of 970 s. Then `Cc1nc(-c2cn(-c3cccc(Cl)c3)nn2)no1`, with 858 s; and `CC(C)c1nc(-c2ccc(OC3CCN(C(=O)C4(c5ccccc5)CC4)C3)cc2)no1` (centres undefined), with 1120 s; and `O=C(Nc1ccc(SCc2ccccc2F)nn1)c1cccs1`, with 942 s. For the compound `COCc1nncn1C1CCN(S(=O)(=O)c2ccc(Cl)c(C)c2)CC1`, the RP-LC retention time was determined as 765 s. In turn, `CCOC(=O)c1c(C)oc2nc(C)nc(N3CCC(c4ccccc4)C3)c12` (centres undefined) showed an RP-LC retention time of 1130 s.

As for `O=C(NCc1cc(F)cc(F)c1)c1cn2cc(Cl)ccc2n1`, the RP-LC retention time stood at 857 s. Then `O=c1ccc(N2CCCC(NS(=O)(=O)c3ccc(F)c(F)c3)C2)nn1CC1CC1` (centres undefined), with 851 s. `O=C(NCc1nc(-c2ccccc2)no1)C1CCN(Cc2nc3ccccc3[nH]2)CC1` returned an RP-LC retention time of 581 s. Then `CCCCn1cc(S(=O)(=O)NCc2ccccc2C(F)(F)F)c2cccnc21`, with 1040 s.

In the case of `Cc1cccc(-c2c3c(=O)n(C)c(=O)n(C)c3c3n2CCOC3c2c(C)n(C)c(=O)n(C)c2=O)c1` (centres undefined), the RP-LC retention time came out at 746 s.

Take `O=C(Cn1c(C(F)(F)F)nc2ccccc21)NCc1ccc2c(c1)OCCCO2`: the RP-LC retention time was determined as 804 s. `CCn1c(=O)c(C)nc2cc(-c3noc(C4CC(=O)N(c5ccc(C)c(C)c5)C4)n3)ccc21` (centres undefined): the RP-LC retention time was 954 s. The compound `Cc1ccc(NC(=O)C2CCCN(c3nc4ccccc4nc3C(F)(F)F)C2)c(Cl)c1` (centres undefined) displayed an RP-LC retention time of 1350 s. For `Cc1nc(C)c(C(=O)NCc2ccc3c(c2)ncn3C(C)C)s1`, the RP-LC retention time is 568 s. Then `O=C(O)c1cn(CCc2ccccc2)nc1S(=O)(=O)N1CCSCC1`, with 838 s; and `COc1ccc(-c2cn3c(CC(=O)NCc4cccc(Br)c4)csc3n2)cc1`, with 811 s. `CCN1CCn2cc(S(=O)(=O)Nc3ccc(F)cc3Cl)cc2C1=O` yielded an RP-LC retention time of 736 s. Then `Cc1nnc(-c2ccc3ccn(CC(=O)N4CCN(C(=O)c5ccco5)CC4)c3c2)o1`, with 674 s; and `Cc1ccc(NC(=O)Cn2nc(N3CCC(C)CC3)c3ccccc3c2=O)c(C)c1`, with 1160 s; and `O=C(NCCC1CCN(C(=O)Nc2cc(F)cc(F)c2)CC1)c1ccsc1`, with 688 s.
